Assay results taken from patent US20050119285A1, “Treatment of neurological disorders related to rapid eye movement (REM) sleep disturbances with NPY Y5 receptor antagonists” (Pfizer Inc, priority 2003, published 2005).
Marks after values point to notes of the source that are not given here.

Tested on: adult, male Wistar rats
Experiment: Sleep measurement by EEG in rats (in vivo sleep study)
Set-up: species or system rat
Details: for Maximal change in REM sleep: cumulative time in REM sleep compared to vehicle controls, first 24 hours after dose
Experimental: Sleep measurement by EEG: For the EEG sleep measurements, adult, male Wistar rats were anesthetized and surgically implanted with a cranial implant for chronic electro-encephalogram (EEG) and electromyogram (EMG) recording. At least three weeks were allowed for the animal to recover from surgery. Food and water were available ad libitum and the ambient temperature was 24±1° C. A 24-hr light-dark cycle (LD 12:12) was maintained throughout the study using fluorescent light. Light intensity averaged 35-40 lux at mid-level inside the cage. Animals were undisturbed for two days before and after each treatment. Sleep and wakefulness were determined using a microcomputer-based sleep-wake and physiological monitoring system. The system monitored amplified EEG (×10,000, bandpass 1-30 Hz; digitization rate 100 Hz, integrated EMG (bandpass 10-100 Hz, RMS integration), and telemetered body temperature and non-specific locomotor activity and drinking activity, from 16 rodents simultaneously. Arousal states were classified on-line as NREM sleep, REM sleep, wake, or theta-domihated wake every 10 seconds using EEG period and amplitude feature extraction and ranked membership algorithms. Individually taught EEG-arousal-state templates and EMG criteria differentiated REM sleep from theta-dominated wake. Drinking and locomotor activity were automatically recorded as discrete events every 10 seconds, and body temperature was recorded each minute. Data quality was assured by frequent on-line inspection of the EEG and EMG signals.
Drug Treatment: A NPY Y1 receptor antagonist was administered at 5, 10, 20 or 40 mg/kg in 0.25% methylcellulose vehicle. The NPY Y5 receptor antagonist of Formula la was administered at 5, 10 or 40 mg/kg and the NPY Y5 receptor antagonist of Formula IIa was administered at 10 and 40 mg/kg (both in 32% hydroxypropyl-betacyclodextrin vehicle). Drugs and vehicles were administered by oral gavage. Rats were randomly assigned to receive treatments in […]. The recording duration for the bioassay was 30 hours before and after treatment. At least 7 days “washout” elapsed between each treatment.
Variables recorded by EEG sleep-wake variables included NREM, REM, total sleep, and duration of sleep and wake bouts and were defined and computed as follows: • Wakefulness, NREM sleep, and REM sleep: percent time in state per hour or per 5 minute bin. • Cumulation of total sleep, NREM sleep, REM sleep, locomotor activity, and drink activity: post-treatment accumulated change over baseline. Change—from-baseline scores were computed by subtracting from the post-treatment value the baseline value at the corresponding circadian time. The change-from-baseline scores were then cumulated in hourly bins, and these values were plotted. • Sleep, wakefulness, and REM sleep bouts: The longest bout and the average bout of uninterrupted sleep each hour, measured in minutes. “Interruption” is defined as 3 or more consecutive 10 sec epochs of wakefulness. An analogous quantification is carried out for bouts of wakefulness and REM sleep. […] Pre-clinical measures of sleep bout length are also strong predictors of soporific efficacy in humans. • Locomotor activity: counts per hour or counts per 5 minute bin. • Locomotor activity intensity: locomotor activity counts per minute of EEG-defined wakefulness. This variate allows an assessment of locomotor activity that is independent of the amount of time awake, thus, it may be used to quantify the specificity of a wake- or sleep-promoting effect (Edgar et al. 1997).
Statistical Analysis—Mixed Model: Treatment effects were analyzed by a mixed model for repeated measures data. Mixed models were performed comparing each active-treatment with vehicle. For all models analysis was based on post-treatment hours with each hour adjusted for the corresponding baseline hour. Adjusting for baseline takes into account any differences between groups during baseline. […]

[1] = 5, 10 and 40 mg/kg, oral gavage

For O=C1OC2(CCN(C(=O)Nc3ccc(C(F)(F)F)cn3)CC2)c2ccccc21 [Formula Ia], which “Effect on NREM sleep” value [1] is on record?
Its value is “increased NPEM sleep”.

And the “Effect on REM sleep” value [1]?
Its value is “significantly reduced REM sleep in a dose-related manner”.

And the “Effect on sleep continuity (sleep bout length)” value [1]?
The value was “increased”.

And the “Persistence of REM sleep inhibiting and NREM sleep promoting effects” value (after 40 mg/kg, oral gavage)?
Its value is “at least 48 hours”.

And the “REM sleep inhibiting and NREM sleep promoting effects still observed after dosing” value (after 40 mg/kg, oral gavage)?
Its value is no less than 4.5 days.

And the “Maximal change in REM sleep” value (dose 5 (mg/kg), oral gavage)?
Its value is −23.8* minutes.

What about the “Maximal change in REM sleep” value (dose 10 (mg/kg), oral gavage) of the same compound?
The value was −42.6* minutes.

What about the “Maximal change in REM sleep” value (dose 40 (mg/kg), oral gavage) of the same compound?
Its value is −74.4* minutes.

And the “Effect on sleep (REM and NREM) in a laboratory animal” value (summary statement, no dose given)?
Its value is “affected sleep (REM and NREM)”.
